In patent US10258602B2 (Ocera Therapeutics, Inc., priority 2007, dated 2019):
pKi: −log10 of the molar value.

Molecular target: human growth hormone secretagogue receptor (hGHS-R1a) (Homo sapiens, UniProt Q92847)
Assay: Competitive radioligand binding assay (ghrelin receptor), standard method A
Conditions: binding activity at the human ghrelin receptor, standard method A
Description: A competitive binding assay at the human growth hormone secretagogue receptor (hGHS-R1a) can be carried out analogously to assays described in the literature. (Bednarek, M. A.; et al. J. Med. Chem. 2000, 43, 4370-4376; Palucki, B. L.; et al. Bioorg. Med. Chem. Lett. […], 11, 1955-1957.) See also U.S. patent application Ser. Nos. 11/149,512 and 11/149,731. Binding activity at the gherlin receptor for representative compounds of the present invention is shown in the Examples below.

human growth hormone secretagogue receptor (hGHS-R1a), sequence (Q92847 whole entry): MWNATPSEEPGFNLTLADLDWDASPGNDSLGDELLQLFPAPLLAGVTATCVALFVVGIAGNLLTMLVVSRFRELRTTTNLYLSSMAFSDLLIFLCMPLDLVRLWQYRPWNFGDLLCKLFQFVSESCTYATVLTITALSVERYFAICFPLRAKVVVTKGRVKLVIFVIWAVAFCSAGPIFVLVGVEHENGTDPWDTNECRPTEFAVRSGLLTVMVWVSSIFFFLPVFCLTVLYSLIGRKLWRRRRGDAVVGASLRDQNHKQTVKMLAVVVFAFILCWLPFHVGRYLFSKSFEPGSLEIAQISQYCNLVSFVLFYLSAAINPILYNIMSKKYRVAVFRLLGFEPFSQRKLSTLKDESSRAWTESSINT

Compound	pKi
C[C@@H]1CN[C@@H](C2CC2)C(=O)N(C)[C@H](C)C(=O)N[C@H](Cc2ccc(F)cc2)C(=O)NCCCc2cccc(Cl)c2O1 [Compound 1007]	≥ 7.00
C[C@@H]1CCc2ccccc2O[C@H](C)CN[C@@H](C2CC2)C(=O)N(C)[C@H](C)C(=O)N[C@H](Cc2ccc(F)cc2)C(=O)N1 [Compound 1010]	≥ 8.00
C[C@@H]1CN[C@@H](C2CC2)C(=O)N(C)[C@H](C)C(=O)N[C@H](C(C)(C)C)C(=O)NCCCc2ccccc2O1 [Compound 1014]	≥ 6.30
CC(C)C[C@H]1NC(=O)[C@@H](C)N(C)C(=O)[C@H](C2CC2)NC[C@@H]2CCc3cccc(c3O2)CCCNC1=O [Compound 1015]	≥ 6.30
C[C@@H]1C(=O)N[C@H](Cc2ccc(F)cc2)C(=O)NCCCc2cccc3c2O[C@@H](CC3)CN[C@@H](C2CC2)C(=O)N1C [Compound 1016]	≥ 7.00
CC(C)C[C@H]1NC(=O)[C@@H](C)N(C)C(=O)[C@H](C2CC2)NCCOc2cnccc2CCCNC1=O [Compound 1021]	< 6.30
CC[C@H](C)[C@@H]1NCCOc2cnccc2CCCNC(=O)[C@@H](CC(C)C)NC(=O)[C@@H](C)N(C)C1=O [Compound 1022]	≥ 6.30
C[C@@H]1CN[C@@H](C2CC2)C(=O)N(C)[C@H](C)C(=O)N[C@H](Cc2ccc(O)cc2)C(=O)NCCCc2ncccc2O1 [Compound 1023]	≥ 7.00
C[C@@H]1C(=O)N[C@H](Cc2ccc(O)cc2)C(=O)NCCCc2cccc3c2O[C@@H](CC3)CN[C@@H](C2CC2)C(=O)N1C [Compound 1024]	≥ 7.00
C[C@@H]1C(=O)N[C@H](Cc2ccc(O)cc2)C(=O)NCCCc2cccc3c2OC(CN[C@@H](C2CC2)C(=O)N1C)C3 (stereo partly drawn) [Compound 1025]	≥ 6.30
CC[C@H](C)[C@@H]1NC[C@@H](C)Oc2cccnc2CCCNC(=O)[C@@H](Cc2ccc(O)cc2)NC(=O)[C@@H](C)N(C)C1=O [Compound 1026]	≥ 7.00
C[C@@H]1CN[C@@H](C2CC2)C(=O)N(C)[C@H](C)C(=O)N[C@H](Cc2ccccc2)C(=O)NCCCc2ncccc2O1 [Compound 1028]	≥ 7.00
CC[C@H](C)[C@@H]1NC[C@@H](C)Oc2cccnc2CCCNC(=O)[C@@H](Cc2ccc(F)cc2)NC(=O)[C@@H](C)N(C)C1=O [Compound 1029]	≥ 8.00
CC[C@H](C)[C@@H]1NC[C@@H](C)Oc2cccnc2CCCNC(=O)[C@@H](Cc2ccccc2)NC(=O)[C@@H](C)N(C)C1=O [Compound 1030]	≥ 7.00
C[C@@H]1C(=O)N[C@H](Cc2ccccc2)C(=O)NCCCc2ccncc2OCCN[C@@H](C2CC2)C(=O)N1C [Compound 1031]	≥ 7.00
CO[C@H](C)[C@@H]1NC[C@@H](C)Oc2cccnc2CCCNC(=O)[C@@H](Cc2ccc(F)cc2)NC(=O)[C@@H](C)N(C)C1=O [Compound 1032]	≥ 6.30
C[C@@H]1CN[C@@H](C2CC2)C(=O)N(C)[C@H](C)C(=O)N[C@H]([C@@H](C)c2ccc(F)cc2)C(=O)NCCCc2ccccc2O1 [Compound 1034]	≥ 7.00
C[C@@H]1CN[C@@H](C2CC2)C(=O)N(C)[C@H](C)C(=O)N[C@H](C(C)(C)c2ccc(F)cc2)C(=O)NCCCc2ccccc2O1 [Compound 1035]	≥ 7.00
C[C@@H]1CN[C@@H](C2CC2)C(=O)N(C)[C@H](C)C(=O)N[C@H](CC(=O)O)C(=O)NCCCc2ccccc2O1 [Compound 1036]	< 6.30
C[C@@H]1CN[C@@H](C2CC2)C(=O)N(C)[C@H](C)C(=O)N[C@H](Cc2ccc(C(F)(F)F)cc2)C(=O)NCCCc2ccccc2O1 [Compound 1038]	≥ 7.00
C[C@@H]1CN[C@@H](C2CC2)C(=O)N(C)[C@H](C)C(=O)N[C@H](Cc2ccc(Cl)cc2Cl)C(=O)NCCCc2ccccc2O1 [Compound 1039]	≥ 7.00

Compound	pKi
C[C@@H]1CN[C@@H](C2CC2)C(=O)N(C)[C@H](C)C(=O)N[C@H](Cc2ccc(F)c(F)c2)C(=O)NCCCc2ccccc2O1 [Compound 1040]	≥ 7.00
C[C@@H]1CN[C@@H](C2CC2)C(=O)N(C)[C@H](C)C(=O)N[C@H](Cc2cc(F)c(F)c(F)c2)C(=O)NCCCc2ccccc2O1 [Compound 1041]	≥ 7.00
C[C@@H]1CN[C@@H](C2CC2)C(=O)N(C)[C@H](C)C(=O)N[C@H](Cc2c(F)c(F)c(F)c(F)c2F)C(=O)NCCCc2ccccc2O1 [Compound 1042]	≥ 7.00
CC1CNC(C2CC2)C(=O)N(C)C(C)C(=O)NC(C(C)(C)C)C(=O)NCCCc2cccc(F)c2O1 (stereo not drawn) [Compound 1044]	≥ 6.30
C[C@@H]1CN[C@@H](C2CC2)C(=O)N(C)[C@H](C)C(=O)N[C@H](CC2CCCCC2)C(=O)NCCCc2ccccc2O1 [Compound 1045]	≥ 7.00
C[C@@H]1CN[C@@H](C2CC2)C(=O)N(C)[C@H](C)C(=O)N[C@H](C2CCCCC2)C(=O)NCCCc2ccccc2O1 [Compound 1046]	≥ 7.00
C[C@@H]1CN[C@@H](C2CC2)C(=O)N(C)[C@H](C)C(=O)N[C@H](C2CC2)C(=O)NCCCc2ccccc2O1 [Compound 1048]	< 6.30
C[C@@H]1CN[C@@H](C2CC2)C(=O)N(C)[C@H](C)C(=O)N[C@H]([C@H](C)O)C(=O)NCCCc2ccccc2O1 [Compound 1050]	< 6.30
C[C@@H]1CN[C@@H](C2CC2)C(=O)N(C)[C@H](C)C(=O)N[C@H](Cc2cc(Br)c(O)c(Br)c2)C(=O)NCCCc2ccccc2O1 [Compound 1053]	≥ 7.00
CC(=O)Oc1c(Br)cc(C[C@H]2NC(=O)[C@@H](C)N(C)C(=O)[C@H](C3CC3)NC[C@@H](C)Oc3ccccc3CCCNC2=O)cc1Br [Compound 1066]	≥ 7.00
C[C@@H]1CN[C@@H](C2CC2)C(=O)N(C)[C@H](C)C(=O)N[C@H]([C@@H](C)c2ccc(O)cc2)C(=O)NCCCc2ccccc2O1 [Compound 1068]	≥ 7.00
C[C@@H]1CN[C@@H](C2CC2)C(=O)N(C)[C@H](C)C(=O)N[C@H](Cc2ccc(F)cc2)C(=O)NCCC(C)(C)c2ccccc2O1 [Compound 1071]	≥ 6.30
C[C@@H]1C(=O)N[C@H](Cc2ccc(O)cc2)C(=O)NCCCc2nccc3c2O[C@H](CC3)CN[C@@H](C2CC2)C(=O)N1C [Compound 1074]	≥ 7.00
C[C@@H]1C(=O)N[C@H]([C@@H](C)c2ccc(O)cc2)C(=O)NCCCc2nccc3c2O[C@H](CC3)CN[C@@H](C2CC2)C(=O)N1C [Compound 1076]	≥ 7.00
C[C@@H]1CN[C@@H](C2CC2)C(=O)N(C)[C@H](C)C(=O)N[C@H](Cc2cccc(O)c2)C(=O)NCCCc2ncccc2O1 [Compound 1079]	≥ 7.00
C[C@@H]1C(=O)N[C@H]([C@@H](C)c2ccc(O)cc2)C(=O)NCCCc2ncccc2OCCN[C@@H](C2CC2)C(=O)N1C [Compound 1080]	≥ 7.00
C[C@@H]1CN[C@@H](C2CC2)C(=O)N(C)[C@H](C)C(=O)N[C@H]([C@H](C)c2ccc(O)cc2)C(=O)NCCCc2ncccc2O1 [Compound 1081]	< 6.30
C[C@@H]1CN[C@@H](C2CC2)C(=O)N(C)[C@H](C)C(=O)N[C@H]([C@@H](C)c2ccc(O)cc2)C(=O)NCCCc2ncccc2O1 [Compound 1082]	≥ 6.30
C[C@@H]1C(=O)N[C@H](Cc2ccc(O)cc2)C(=O)N[C@@H](C)CCc2ccccc2OCCN[C@@H](C2CC2)C(=O)N1C [Compound 1083]	≥ 7.00
CC(C)C[C@H]1NC(=O)[C@@H](C)N(C)C(=O)[C@H](C2CC2)NCCOc2ccccc2CC[C@H](C)NC1=O [Compound 1084]	≥ 7.00
CC(C)C[C@H]1NC(=O)[C@@H](C)N(C)C(=O)[C@H](C2CC2)NCCOc2ccccc2CC[C@@H](C)NC1=O [Compound 1086]	≥ 7.00
